Results published in PubChem BioAssay (NCI).
“And” between values parts separate entries of the source, which are not always exact repeats. Equal values may be shown once.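 Five compound concentrations were applied to cells in 96-well plates for 48 hours; endpoints were derived by simple linear interpolation of the resulting dose-response curve. The concentration for 50% growth inhibition is given as GI50. TGI: concentration producing complete growth inhibition.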

Legend:
Assay in all cases: DTP human tumour cell line panel, 48 h
[1] = test system: OVCAR-8 ovarian
[2] = test system: SF-539 CNS
[3] = test system: COLO 205 colon
[4] = test system: HCT-15 colon
[5] = test system: SNB-75 CNS
[6] = test system: SW-620 colon
[7] = test system: SNB-19 CNS
[8] = test system: RXF 393 renal
[9] = test system: SK-MEL-2 melanoma
[10] = test system: M14 melanoma

Row | SMILES | TGI [1] | TGI [2] | TGI [3] [µM] | TGI [4] | TGI [5] [µM] | TGI [6] | TGI [7] [µM] | TGI [8] [µM] | TGI [9] [µM] | TGI [10] | GI50 [1] [µM] | GI50 [2] [µM] | GI50 [3] [µM] | GI50 [4] [µM] | GI50 [5] [µM] | GI50 [6] [µM] | GI50 [7] [µM] | GI50 [8] [µM] | GI50 [9] [µM] | GI50 [10] [µM]
1 | CCC1CCCCN1CC(C(C)=O)C(c1ccccc1)c1c(O)c2ccccc2oc1=O (configuration not stated) | > 100 µM | > 100 µM | > 100 | > 100 µM | > 100 | > 100 µM | > 100 | > 100 | > 100 | > 100 µM |  |  |  |  |  |  |  |  |  | 
2 | CCCCC#Cc1c(I)n(C2OC(CO[Si](C)(C)C(C)(C)C)C3OC(C)(C)OC32)c(=O)n(C(=O)c2ccccc2)c1=O (configuration not stated) | 18.6 µM | 12.8 µM | 3.14 | > 100 µM | 27.5 | 6.03 µM | 28.4 | 23.9 | 4.75 | 3.3 µM | 5.61 | 3.54 | 1.59 | 1.63 | 14.1 | 2.33 | 14.1 | 11 | 2.09 | 1.6
3 | Cc1ccc2oc(=O)c3c(O)c4cccc(OC5OC(C)C6O[C@@H](c7ccccc7)OC6C5OC5OC(C)C(O)C(O)C5O)c4c4oc(=O)c1c2c34 (some centres not stated) | 2.74 µM and 1.43 µM | 1.34 µM and 1.39 µM |  | 1.5 µM and 5.01 µM | 1.54 | 2.43 µM and 7.53 µM |  | 0.763 | 1.68 | 1.85 µM and 1.64 µM | 0.0562 |  | 0.0807 | 0.261 |  |  | 0.0266 |  |  | 0.409
4 | CC(C)C[C@H](NC(=O)Cn1cccc(CNC(=O)c2ccccc2)c1=O)B(O)O | > 85.7 µM | 0.454 µM | 97.8 | 37.3 µM | 2.33 | 6.85 µM | > 100 | 1.1 | 2.79 | 1.42 µM | 4.23 | 0.133 | 1.65 | 4.7 | 0.32 | 0.345 | 0.495 | 0.316 | 0.384 | 0.27
5 | CC(=O)c1c[nH]c2ccc(-c3ccnc(Nc4ccc(NC(=O)C5CCCC5)c(CN5CCOCC5)c4)n3)cc12 | > 100 µM | 0.0681 µM | 0.0679 | 0.758 µM | 0.042 | 0.551 µM | 7.96 | 0.036 | 0.0585 | 0.0955 µM | 0.0362 | 0.0229 | 0.0194 | 0.0558 |  | 0.0387 | 0.041 | 0.0114 | 0.0222 | 0.0274
6 | Nc1nc(Cl)nc2c1ncn2C1OC(CO)C(O)C1F (configuration not stated) | > 100 µM | 7.48 µM | > 100 | > 100 µM | > 26.1 | > 100 µM | > 100 | > 100 | > 100 | 0.0889 µM | 0.0292 | 2.07 | 0.0951 | 5.96 | 0.731 | 0.839 | 0.191 | 12.8 | > 100 | 0.024
7 | Nc1c(C(=O)c2cccc(C(O)CO)c2)cnn1-c1ccc(F)cc1 (configuration not stated) | > 25 µM | > 25 µM | > 25 | > 25 µM | > 25 | > 25 µM | > 25 | > 25 | > 25 | > 25 µM | > 25 | > 25 | > 25 | > 25 | > 25 | > 25 | > 25 | > 25 | > 25 | > 25
8 | CN1CCN(C(=O)c2ccc(NC(=O)Nc3ccc(-c4nc(N5CCOCC5)c5cccn5n4)cc3)cc2)CC1 | > 100 µM | 0.393 µM | 1.38 | 12.6 µM | 0.0684 | 12.1 µM | 11.1 | 0.175 | 1.39 | 10.3 µM | 0.0486 | 0.0481 | 0.0414 | 0.548 | 0.0134 | 0.0634 | 0.0363 | 0.0307 | 0.0596 | 0.0966
9 | O=c1[nH]c2ccccc2c(O)c1/C=N/C(=S)NC1CCCCC1 | > 100 µM | > 100 µM | > 100 | > 100 µM | > 100 | > 100 µM | > 100 | > 100 | > 100 | > 100 µM |  |  |  |  |  |  |  |  |  | 
10 | COC(=O)CC1(O)C=CC(=O)C=C1 | 17.3 µM | 12.8 µM | 17.8 | 8.76 µM | 14.2 | 27.3 µM | 21.3 | 17.9 | 14.6 | 16.6 µM |  |  |  |  |  |  |  |  |  | 
11 | Cc1ccc(S(=O)(=O)n2cc([C@@]3(O)C[C@H](CSC#N)OC3=O)c3ccccc32)cc1 | 22.5 µM | 16.2 µM | 33.6 | 71.2 µM | 71 | 19.5 µM | > 100 | 7.61 | 24.4 | 35.9 µM | 10.2 | 4.57 | 6.42 | 13.6 | 15.5 | 5.98 | > 100 | 2.13 | 9.23 | 7.94
12 | CCCCCCCC(=O)[O-].CCCCCCCC(=O)[O-].N.N.N.N.[Co+3].[O-][Cl+3]([O-])([O-])[O-] | > 100 µM | > 100 µM | > 100 | > 100 µM | > 100 | > 100 µM | > 100 | > 100 | > 100 | > 100 µM | > 100 | > 100 | > 100 | > 100 | > 100 | > 100 | > 100 | 74.6 | > 100 | > 100
13 | Cc1c(Nc2nccc3cc(CN4CC[C@@H](O)C4)cnc23)cccc1-c1cccc(-c2nc3cc(CN4CC[C@@H](C(=O)O)C4)cc(C#N)c3o2)c1C | 36.2 µM | 28.1 µM | > 100 | 15.8 µM | > 100 | 17.9 µM | 46.2 | 5.41 | > 100 | 20.3 µM | 12.4 | 5.9 | 18.7 | 3.79 | 15.1 | 4.67 | 16.5 | 2 | > 100 | 5.82
